Assay results from US9717719B2, “Treatment, prevention, and reversal of alcohol-induced liver disease” (Rhode Island Hospital, priority 2006, dated 2017).
Entries after “also recorded” stand apart in the source; their conditions may differ.

What was measured:
Type in all cases: in vivo, rat
IGF-II receptor = test: Saturation binding assay in liver of treated rats, IGF-II receptor binding; details: pooled liver of 8 rats
Description: Adult male (˜200-250 g) Long Evans rats (Harlan Sprague Dawley, Inc., Indianapolis, Ind.) were pair-fed with isocaloric liquid diets (BioServ, Frenchtown, N.J.) containing 0% (control) or 37% ethanol by caloric content (9.2% v/v) for 8 weeks. During the week prior to initiating the experiment, rats were adapted to the ethanol-containing diets by sequentially feeding them for two days each with diets containing 8%, 17%, 24%, and then 37% ethanol. Chow fed control rats were also studied. Rats were monitored daily to ensure equivalent food consumption and maintenance of body weight. During the last 3 weeks of the experiment while being maintained on either the 0% or 37% ethanol-containing liquid diets, rats in both groups were administered twice weekly (Mondays and Thursdays) intra-peritoneal (i.p.) injections of vehicle (saline), a PPAR-α (GW7647; 25 μg/kg), PPAR δ (L-165,041; 2 μg/kg), or PPAR-γ (F-L-Leu; 20 μg/kg) agonist (CalBiochem, Carlsbad, Calif.). At the conclusion of the experiment, rats were anesthetized with vaporized isofluorane (SurgiVet, Inc. Waukesha, Wis.), and liver and blood were harvested for analysis. Liver tissue samples were immersion fixed in Histochoice (Amresco Corp., Solon, Ohio) and embedded in paraffin. Adjacent histological sections were stained with Hematoxylin and Eosin or Gomori's Trichrome and examined under code. In addition, liver tissue samples were snap-frozen in a dry ice methanol bath and then stored at −80° C. for later mRNA and protein studies. Throughout the experiment, rats were housed under humane conditions and kept on a 12-hour light/dark cycle with free access to food. All experiments were performed in accordance with protocols that conform to guidelines established by the National Institutes of Health and were approved by Institutional Animal Care and Use Committee at the Lifespan-Rhode Island Hospital.
Saturation binding studies were used to determine if the PPAR agonist treatments improved ethanol-impaired insulin and IGF receptor binding in liver. Fresh frozen liver tissue was homogenized in 5 volumes of lysis buffer containing 50 mM Tris-HCl, pH 7.5, 1% NP-40, 150 mM NaCl, 1 mM EDTA, 2 mM EGTA, plus protease (1 mM PMSF, 0.1 mM TPCK, 1 μg/ml aprotinin, 1 μg/ml pepstatin A, 0.5 μg/ml leupeptin, 1 mM NaF, 1 mM Na4P2O7) and phosphatase (2 mM Na3VO4) inhibitors. Protein concentration was determined using the bicinchoninic acid (BCA) assay (Pierce, Rockford, Ill.). Exploratory studies determined the optimum amounts of protein and concentrations of radiolabeled ligand required to achieve 20% specific binding. Insulin receptor binding was measured using 100 μg protein per assay tube. IGF-I binding assays required 25 μg protein per sample, and IGF-II receptor binding assays required 10 μg protein per reaction.
To generate the binding curse, samples from 8 rats per group were pooled in equivalent ratios and protein concentrations were adjusted to be identical for each group. For total binding, duplicate samples were incubated in 100 μl reactions containing binding buffer (100 mM HEPES, pH 8.0, 118 mM NaCl, 1.2 mM MgSO4, 8.8 mM dextrose, 5 mM KCl, 1% bovine serum albumin) and 0.0031 to 1 μCi/ml of [^125I] (2000 Ci/mmol) insulin, IGF-I, or IGF-II. For non-specific binding, duplicate samples were identically prepared but with the addition of 0.1 μM unlabeled (cold) ligand. Incubations were carried out for 16 hours at 4° C. in non-binding 96 well plates (Corning Incorporated Life Science, Lowell, Mass.). Reactions were vacuum harvested (Corning, Lowell, Mass.) onto 96-well GF/C filter plates that had been presoaked for 30 minutes in 0.33% polyethyleneimine (PEI) solution. The filters were washed 5 times with buffer containing 50 mM buffer [4-2-hydroxyethyl)-1-piperazine-ethanesulfonic acid (HEPES), pH 7.4, 500 mM NaCl, and 0.1% BSA. […]

[1] = system: Long-Evans male rats fed a 37% ethanol liquid diet; test: DNA damage in liver by 8-OHdG immunostaining; details: chronic ethanol fed rats
Protocol: (§1) An isocaloric (sucrose substituted for ethanol) diet was administered to pair fed control animals. After three weeks, both groups of rats were injected with either PPAR-α, γ, or δ agonists or saline as a control. […] The […] were given IP injections twice a week. At 6 weeks, the animals underwent 2/3 partial hepatectomy. The removed liver was used for histology, measurement of lipid peroxidation, DNA damage and insulin/IGF signaling as described below. Following ⅔ hepatectomy, the liver remnants were harvested 18, 24, 30 and 48 hours later to assess the regenerative response. To do this, animals were injected IP with BrdU 2 hours before harvest to measure its incorporation into hepatic nuclei as an index of DNA synthesis.
Paraffin sections (8 μm thick) were immunostained with monoclonal antibodies to 8-hydroxy-deoxyguanosine (8-OHdG) (Oxis Research) or 4-hydroxynonenol (HNE) (Chemicon International, Temecula, Calif.), to detect DNA damage and lipid peroxidation, respectively. Prior to immunostaining, the deparaffinized, re-hydrated sections were treated with 0.1 mg/ml saponin in phosphate buffered saline (10 mM sodium phosphate, 0.9% NaCl, pH 7.4; PBS) for 20 minutes at room temperature, followed by 3% hydrogen peroxide in methanol for 10 minutes to quench endogenous peroxidase activity, and then a 30-minute incubation in SuperBlock-TBS (Pierce Chemical Co., Rockford, Ill.) to block non-specific binding sites. The tissue sections were then incubated overnight at 4° C. with 0.5-1 μg/ml of primary antibody. […] The tissue sections were counterstained with hematoxylin, preserved under coverglass, and examined by light microscopy.

[2] = system: Long-Evans male rats fed a 37% ethanol liquid diet; test: Liver regeneration by BrdU incorporation after 2/3 partial hepatectomy in chronic ethanol fed rats; details: for increase in BrdU labeling: 24 hours after 2/3 hepatectomy, compared to ethanol fed animals; for liver regeneration (BrdU incorporation): after 2/3 hepatectomy
Protocol: as §1

Row | SMILES | BMAX ± S.E.M. (IGF-II receptor; Control + agonist) | BMAX ± S.E.M. (IGF-II receptor; Ethanol + agonist) | DNA damage (8-OHdG immunoreactivity) [1] | increase in BrdU labeling [2] | liver regeneration (BrdU incorporation) [2]
1 | CC(C)(Sc1ccc(CCN(CCCCC2CCCCC2)C(=O)NC2CCCCC2)cc1)C(=O)O [PPAR-α, GW7647] | 40.27 ± 3.28 | 28.88 ± 6.20 | protective effect | approximately 20% | more modest beneficial effects
2 | CC(C)C[C@H](NC(=O)OCC1c2ccccc2-c2ccccc21)C(=O)O [PPAR-γ, F-L-Leu] | 25.20 ± 2.04 | 22.56 ± 4.43 | protective effect | approximately 20% | 
3 | CCCc1c(OCCCOc2ccc(OCC(=O)O)cc2)ccc(C(C)=O)c1O [PPAR-δ, L-165,041] | 29.01 ± 1.99 | 51.50 ± 13.53 | most prominent protective effect; also recorded: superior to the α and γ agents in preventing hepatocyte damage |  | essentially restored liver regeneration to levels seen in normal control animals; also recorded: returns the liver regenerative response to normal levels; also recorded: more modest beneficial effects
